Blank lines part the entries; values can stand above or below the compound they belong to.
What was measured:
recombinant human NNMT = target: T1, recombinant human NNMT (Homo sapiens, UniProt P40261); experiment: In vitro NNMT enzyme inhibition assay (Promega MTase-Glo Methyltransferase Assay); format: biochemical; conditions: compared with compound 1
T1 sequence (P40261 1-264): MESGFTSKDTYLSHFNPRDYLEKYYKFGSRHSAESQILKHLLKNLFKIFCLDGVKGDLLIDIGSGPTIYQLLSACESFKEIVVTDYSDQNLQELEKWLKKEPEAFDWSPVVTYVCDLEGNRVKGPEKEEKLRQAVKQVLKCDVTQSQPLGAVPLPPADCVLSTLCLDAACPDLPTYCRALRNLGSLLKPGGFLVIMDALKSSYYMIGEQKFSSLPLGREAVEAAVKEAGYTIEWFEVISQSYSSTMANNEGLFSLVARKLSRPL
Protocol: NNMT biochemical activity for was evaluated for compound 1 (FIG. 1), compound 2 (FIG. 2), compound 6 (FIG. 3), compound 8 (FIG. 4), compound 14 (FIG. 5), compound 16 (FIG. 6), and compound 13 (FIG. 12), using the Promega Mtase-Glo Methyltransferase Assay kit. Compounsd 4A (FIG. 7) and 4B (FIG. 8) were also tested in the assay.
Assays were performed in a white, flat-bottomed 96 well plate. […] Reactions were performed for 20 minutes at room temperature. MTase-Glo reagent and MTase-Glo detection solution were added according to manufacturer's instructions and luminescence signal measured with a SpectraMax i3 plate reader and data analyzed with GraphPad Prism version 9. Scheme 10 depicts a visual summary of the Promega MTase-Glo Methyltransferase assay used to assess biochemical activity of novel inhibitors.

in vitro = experiment: in vitro
Protocol: A master solution was prepared according to the following table.
40 μL of 10 mM NADPH solution was added to each well. The final concentrations of NADPH was 1 mM. The mixture was pre-warmed at 37° C. for 5 minutes. The negative control samples were prepared by replacing NADPH solutions with 40 μL of ultra-pure H2O. The negative control was used to exclude the misleading factor that resulted from instability of chemical itself. Samples with NADPH were prepared in duplicate. Negative controls were prepared in singlet.
The reaction was started with the addition of 4 μL of 200 uM control compound or test compound solutions. […] The reaction was stopped by the addition of 4 volumes of cold acetonitrile with IS (100 nM alprazolam, 200 nM imipramine, 200 nM labetalol and 2 uM ketoprofen). Samples were centrifuged at 3, 220 g for 40 minutes. Aliquot of 90 μL of the supernatant was mixed with 90 μL of ultra-pure H2O and then used for LC-MS/MS analysis.
For metabolite standard samples: 1 μL of 400 uM working solution was added to 89 μL master solution following by adding 400 μL of cold acetonitrile with internal standard (IS) (100 nM alprazolam, 200 nM Imipramine, 200 nM labetalol and 2 uM ketoprofen). Then 10 μL of 10 mM NADPH solution or ultra-pure H2O was added to the mixture. Samples were centrifuged at 3,220 g for 40 minutes to precipitate protein. Aliquots of 90 μL supernatant diluted by 90 μL of water was used for LC-MS/MS analysis.

[1] = Mouse PK study (IV and PO) in female C57B16/N; format: in vivo; conditions: for Tmax: iv
Protocol: Doses were freshly prepared on the day of dosing. Vehicle compositions of each dose are listed below. For IV, an appropriate amount of the test article was dissolved in the vehicle with vortexing and/or sonication to achieve a solution with the intended concentration level. For PO, an appropriate amount of the test article was dissolved in the appropriate vehicle; vortex and/or sonication can be used to achieve a solution formulation with the intended concentration level. • IV: 0.5% Tween 80 in saline • PO: 0.2% Tween 80/10% PEG-300 in water. Adjust pH with IN hydrochloric acid to obtain a clear solution
(§1) After dosing, 0.03 mL blood samples were collected from the dorsal metatarsal vein (0.2 mL at final time point via heart puncture) at the following time points: • IV: pre-dose, 0.0833, 0.25, 0.5, 1, 2, 4, 6, 8, 24 hours post dose • PO: pre-dose, 0.25, 0.5, 1, 2, 4, 6, 8, 24 hours post dose
(§2) Blood from each sample was transferred into plastic micro centrifuge tubes with EDTAK2 as an anticoagulant. The blood samples were centrifuged at 4,000 g for 5 minutes at 4° C. to obtain plasma. Samples were immediately frozen in the upright position and stored at −75±15° C. prior to analysis.
Samples were analyzed on a AB Sciex Triple Quad 5500 LC/MS/MS instrument using a Gemini 5 μm C18 110A 150×3 mm column (XBridge BEH C18 2.5 μm 4.6×75 mm in the case of JBSNF-000265) with the following equipment installed.
The mobile phase A was 0.1% formic acid in water, and the mobile phase B was 95% acetonitrile in water (0.1% formic acid), delivered at 0.4 mL/min.
Sample Preparation: The desired serial concentrations of working solutions were achieved by diluting stock solution of analyte with 50% acetonitrile in water solution. 5 μL of working solutions (1, 2, 3, 5, 10, 50, 100, 500, 1000 ng/ml) were added to 5 μL of the blank C57B16/N mouse plasma to achieve calibration standards of 1˜1000 ng/ml (1, 2, 3, 5, 10, 50, 100, 500, 1000 ng/ml) in a total volume of 10 μL. Four quality control samples at 3 ng/mL, 5 ng/mL, 100 ng/mL, and 800 ng/mL for plasma were prepared independently of those used for the calibration curves. These QC samples were prepared on the day of analysis in the same way as calibration standards.
(§3) 10 μL of standards, 10 μL of QC samples and 10 μL of unknown samples (5 μL of plasma with 5 μL of blank solution) were added to 100 μL of acetonitrile (containing D4-1-MNA 50 ng/mL) for precipitating protein respectively. Then the samples were vortexed for 30 s. After centrifugation at 4 degree Celsius, 4,000 rpm for 15 min, the supernatant was diluted 3 times with water. 10 μL of diluted supernatant (20 μL in the case of JBSNF-000265) was injected into the LC/MS/MS system for quantitative analysis.

1-MNA = 1-MNA plasma PK parameters in mouse after dosing with compound; format: in vivo; conditions: plasma 1-MNA, female C57B16/N
Protocol: as §1, §2
Sample Preparation: 1-Methylnicotinamide (1-MNA): The desired serial concentrations of working solutions were achieved by diluting stock solution of analyte with 50% acetonitrile in water solution. 5 μL of working solutions (1, 2, 3, 5, 10, 50, 100, 500, 1000 ng/mL) were added to 5 μL of water to achieve calibration standards of 1˜1000 ng/ml (1, 2, 3, 5, 10, 50, 100, 500, 1000 ng/ml) in a total volume of 10 μL. Four quality control samples at 3 ng/ml, 5 ng/mL, 100 ng/mL, and 800 ng/ml for water were prepared independently of those used for the calibration curves. These QC samples were prepared on the day of analysis in the same way as calibration standards.
as §3, with “D4-1-MNA 100” for “D4-1-MNA 50”, “Celsius, 4000” for “Celsius, 4,000”, “water. 5” for “water. 10”, “supernatant” for “supernatant (20 μL in the case of JBSNF-000265)”

[2] = mouse, plasma, 1 mg/kg (Table 5B, title: IV Dosage)
[3] = mouse, plasma, 10 mg/kg (Table 5B, title: IV Dosage)
[4] = mouse, plasma, 50 mg/kg (Table 5B, title: IV Dosage)

activity in the enzyme assay (in words) (recombinant human NNMT): significantly less active
Structure (SMILES): CNc1cc2ccncc2cn1

activity in the enzyme assay (in words) (recombinant human NNMT): substrate (not inhibitor)
Structure (SMILES): CNc1cc2cc[nH]c(=O)c2cn1

Predicted hepatic CL (in vitro; human, 2 uM): <5.12 mL/min/kg | CLint scaled at 2 uM (in vitro; human, microsomes): < 6.79 mL/min/kg | half-life at 2 uM (in vitro; human, microsomes): > 256 min | microsomal CLint at 2 uM (in vitro; human, microsomes): < 5.42 µL/min/mg | Remaining (%) at 60 minutes (in vitro; human, microsomes, 1 h, 2 uM): 86.23% | % Q (mice): percent of compound remaining after 60 minutes of exposure to liver microsomes (in vitro; male, C57B16/N, mouse, microsomes, 1 h, 2 uM): 46.35% | Predicted hepatic CL (in vitro; male, mouse, 2 uM): 50.12 mL/min/kg | CLint scaled at 2 uM (in vitro; male, mouse, microsomes): 113 mL/min/kg | half-life at 2 uM (in vitro; male, mouse, microsomes): 53.6 min | microsomal CLint at 2 uM (in vitro; male, mouse, microsomes): 25.9 µL/min/mg | Remaining (%) at 60 minutes (in vitro; male, mouse, microsomes, 1 h, 2 uM): 46.35% | % Q (human): percent of compound remaining after 60 minutes of exposure to liver microsomes (in vitro; microsomes, 1 h, 2 uM): 86.23% | AUC% Extrap—obs ([1]; 3 mg/kg IV): 0.666% | AUClast/D ([1]; 3 mg/kg IV): 97 ng·h/mL per mg/kg | Cl_obs ([1]; 3 mg/kg IV): 173 mL/min/kg | F ([1]; 10 mg/kg): 10.3% | F ([1]; 50 mg/kg): 32.4% | AUC(0-t) [1, 2]: 97 ng·h/mL | Cmax [1, 2]: 3.66 ng/mL | half-life [1, 2]: 255 min | AUC(0-inf) ([1]; mouse, plasma, 3 mg/kg IV): 292 ng·h/mL | AUC(0-t) ([1]; mouse, plasma, 3 mg/kg IV): 290 ng·h/mL | C0 ([1]; mouse, plasma, 3 mg/kg IV): 864 ng/mL | half-life ([1]; mouse, plasma, 3 mg/kg IV): 25.5 min | MRT inf ([1]; mouse, plasma, 3 mg/kg IV, read-out: MRTInf—obs): 20.8 min | AUC(0-t) [1, 3]: 96.4 ng·h/mL | Cmax [1, 3]: 145 ng/mL | half-life [1, 3]: 143 min | AUC(0-t) [1, 4]: 1540 ng·h/mL | Cmax [1, 4]: 1350 ng/mL | half-life [1, 4]: 473 min | Tmax ([1]; mouse, plasma, 10 mg/kg): 15 min | Tmax ([1]; mouse, plasma, 50 mg/kg): 20 min
Structure (SMILES): CNc1cc2ccnc(N)c2cn1 [Compound 1]
AUClast of 1-MNA (1-MNA; 3 mg/kg IV): 1463 ng·h/mL | AUClast of 1-MNA (1-MNA; 10 mg/kg PO): 934 ng·h/mL | AUClast of 1-MNA (1-MNA; 50 mg/kg PO): 814 ng·h/mL

Source: patent US20250340549A1, “BICYCLIC HETEROAROMATIC INHIBITORS OF NICOTINAMIDE N-[…], AND COMPOSITIONS AND USES THEREOF” (President and Fellows of Harvard College, priority 2021, published 2025)
